Test results reported in patent US8603537B2, “Prasugrel containing quickly released stable oral pharmaceutical compositions” (Egis Pharmaceuticals PLC, priority 2012, dated 2013).
Structures can show the parent of a compound that is named as a salt.

Experiments:
[1] = EP 2415 774; cited from earlier work
[2] = Solubility of prasugrel base and prasugrel HCl at different pH values; format: physicochemical
Source text: According to the examples of WO 2008/073759 prasugrel containing pharmaceutical compositions are stabilized by storing the tablets in air-and waterproof packaging. According to WO 2006/135605 the decomposition of prasugrel containing compositions can be reduced in air- and moisture-proof blister filled with inert gas. […] This fact is substantiated by the following Table. It can be seen from the above Table that the solubility of the hydrochloric acid salt of prasugrel is much higher than that of the prasugrel base even in the pH range between 4.5 and 6.8

platelet aggregation = conditions: administered in the same dose, EP 1 298 132 B1; cited from earlier work
[3] = Storage stability of prasugrel base, related substances by HPLC; format: physicochemical
Source text: Contrary to the teaching of WO 2011/098536a stable product of appropriate bioavailability is obtained.

[4] = 25 ± 2° C. 60 ± 5% RH, 2 months
[5] = 25 ± 2° C. 60 ± 5% RH, 3 months
[6] = 25 ± 2° C. 60 ± 5% RH, 6 months
[7] = 40 ± 2° C. 75 ± 5% RH, 2 months
[8] = 40 ± 2° C. 75 ± 5% RH, 3 months
[9] = 40 ± 2° C. 75 ± 5% RH, 6 months

CC(=O)Oc1cc2c(s1)CCN(C(C(=O)C1CC1)c1ccccc1F)C2 (centres unmarked) [hydrogen bromide salt]
Solubility in 0.1N hydrochloric acid compared with the hydrochloric acid salt [1]: more readily soluble

CC(=O)Oc1cc2c(s1)CCN(C(C(=O)C1CC1)c1ccccc1F)C2 (centres unmarked) [prasugrel HCl]
Solubility ([2]; pH 1): 7.8 g/100 ml
Solubility ([2]; pH 4.5): 0.032 g/100 ml
Solubility ([2]; pH 6.8): 0.007 g/100 ml
Platelet aggregation inhibitory effect compared with the base (platelet aggregation): almost twice higher

CC(=O)Oc1cc2c(s1)CCN(C(C(=O)C1CC1)c1ccccc1F)C2 (centres unmarked) [prasugrel base, 5-/2-cyclopropyl-1-(2-fluoro-phenyl)-2-oxoethyl/-4,5,6,7-tetrahydrothieno/3.2-c/-pyridine-2-yl-acetate]
Solubility ([2]; Water): 0.0009 g/100 ml
Solubility ([2]; pH 1): 2.8 g/100 ml
Solubility ([2]; pH 4.5): 0.0035 g/100 ml
Solubility ([2]; pH 6.8): 0.001 g/100 ml
Related substances by HPLC: Any identified impurity, each ([3]; 25 ± 2° C. 60 ± 5% RH, 1 month): 0.05%
Related substances by HPLC: Any unidentified impurity ([3]; 25 ± 2° C. 60 ± 5% RH, 1 month): <0.05%
Related substances by HPLC: Dezacetyl impurity ([3]; 25 ± 2° C. 60 ± 5% RH, 1 month): <0.05%
Related substances by HPLC: Sum of impurities ([3]; 25 ± 2° C. 60 ± 5% RH, 1 month): 0.05%
Related substances by HPLC: Any identified impurity, each [3, 4]: 0.07%
Related substances by HPLC: Any unidentified impurity [3, 4]: <0.05%
Related substances by HPLC: Dezacetyl impurity [3, 4]: <0.05%
Related substances by HPLC: Sum of impurities [3, 4]: 0.07%
Related substances by HPLC: Any identified impurity, each [3, 5]: <0.05%
Related substances by HPLC: Any unidentified impurity [3, 5]: <0.05%
Related substances by HPLC: Dezacetyl impurity [3, 5]: <0.05%
Related substances by HPLC: Sum of impurities [3, 5]: <0.05%
Related substances by HPLC: Any identified impurity, each [3, 6]: <0.05%
Related substances by HPLC: Any unidentified impurity [3, 6]: <0.05%
Related substances by HPLC: Dezacetyl impurity [3, 6]: <0.05%
Related substances by HPLC: Sum of impurities [3, 6]: <0.05%
Related substances by HPLC: Any identified impurity, each ([3]; 25 ± 2° C. 60 ± 5% RH, Initial): <0.05%
Related substances by HPLC: Any unidentified impurity ([3]; 25 ± 2° C. 60 ± 5% RH, Initial): <0.05%
Related substances by HPLC: Dezacetyl impurity ([3]; 25 ± 2° C. 60 ± 5% RH, Initial): <0.05%
Related substances by HPLC: Sum of impurities ([3]; 25 ± 2° C. 60 ± 5% RH, Initial): <0.05%
Related substances by HPLC: Any identified impurity, each ([3]; 40 ± 2° C. 75 ± 5% RH, 1 month): <0.05%
Related substances by HPLC: Any unidentified impurity ([3]; 40 ± 2° C. 75 ± 5% RH, 1 month): <0.05%
Related substances by HPLC: Dezacetyl impurity ([3]; 40 ± 2° C. 75 ± 5% RH, 1 month): <0.05%
Related substances by HPLC: Sum of impurities ([3]; 40 ± 2° C. 75 ± 5% RH, 1 month): <0.05%
Related substances by HPLC: Any identified impurity, each [3, 7]: 0.05%
Related substances by HPLC: Any unidentified impurity [3, 7]: <0.05%
Related substances by HPLC: Dezacetyl impurity [3, 7]: <0.05%
Related substances by HPLC: Sum of impurities [3, 7]: 0.05%
Related substances by HPLC: Any identified impurity, each [3, 8]: <0.05%
Related substances by HPLC: Any unidentified impurity [3, 8]: <0.05%
Related substances by HPLC: Dezacetyl impurity [3, 8]: <0.05%
Related substances by HPLC: Sum of impurities [3, 8]: <0.05%
Related substances by HPLC: Any identified impurity, each [3, 9]: <0.05%
Related substances by HPLC: Any unidentified impurity [3, 9]: <0.05%
Related substances by HPLC: Dezacetyl impurity [3, 9]: <0.05%
Related substances by HPLC: Sum of impurities [3, 9]: <0.05%
Related substances by HPLC: Any identified impurity, each ([3]; 40 ± 2° C. 75 ± 5% RH, Initial): <0.05%
Related substances by HPLC: Any unidentified impurity ([3]; 40 ± 2° C. 75 ± 5% RH, Initial): <0.05%
Related substances by HPLC: Dezacetyl impurity ([3]; 40 ± 2° C. 75 ± 5% RH, Initial): <0.05%
Related substances by HPLC: Sum of impurities ([3]; 40 ± 2° C. 75 ± 5% RH, Initial): <0.05%
Stability of the base per se on storage ([3]; storage period of 6 months): remains stable
